# Experimental data from ChEMBL document CHEMBL1154010, “Aziridine alkaloids as potential therapeutic agents” (Eur J Med Chem, 2009).
# Experiments:
# CCRF S-180 [1] = experiment: Antitumor activity against mouse S180 cells implanted in ip dosed ddY mouse assessed as tumor volume after 7 days; assay type: functional
# Mus musculus = experiment: Toxicity in ip dosed ddY mouse bearing mouse S180 cells; assay type: organism-based, CCRF S-180; settings: in vivo
# L5178Y = experiment: Cytotoxicity against mouse L5178Y cells; assay type: functional, cell-based
# [2] = Toxicity in rat bearing M1 cells assessed as mortality at 40% LD50 per day; assay type: organism-based; settings: m1, 40 % LD50 per day, read-out: Activity
# [3] = Antitumor activity against mouse mammary cancer cell implanted in C3H/An mouse assessed as inhibition of tumor growth at 0.5 mg/day for 14 days; assay type: functional, Cancer cell lines
# [4] = Antitumor activity against mouse EAC cells xenografted in rat; assay type: functional, Ehrlich
# CCRF S-180 [5] = experiment: Antitumor activity against mouse S180 cells xenografted in rat; assay type: functional
# L1210 = experiment: Cytotoxicity against mouse L1210 cells; assay type: functional, cell-based
# HL-60 = experiment: Cytotoxicity against human HL60 cells; assay type: functional, cell-based
# HCT-116 = experiment: Cytotoxicity against human HCT116 cells; assay type: functional, cell-based
# Pseudomonas aeruginosa [6] = experiment: Antimicrobial activity against Pseudomonas aeruginosa A3; assay type: functional
# Escherichia coli [7] = experiment: Antimicrobial activity against Escherichia coli NIHJ; assay type: functional
# Escherichia coli [8] = experiment: Antimicrobial activity against Escherichia coli BE1186; assay type: functional
# Escherichia coli [9] = experiment: Antimicrobial activity against Escherichia coli BEM11; assay type: functional
# Providencia rettgeri [10] = experiment: Antimicrobial activity against Providencia rettgeri GN466; assay type: functional
# Mycolicibacterium vaccae = experiment: Antimicrobial activity against Mycobacterium vaccae ATCC 15483; assay type: functional
# Staphylococcus aureus [11] = experiment: Antimicrobial activity against Staphylococcus aureus FDA209P; assay type: functional
# Micrococcus luteus [12] = experiment: Antimicrobial activity against Micrococcus luteus IFO 3333; assay type: functional
# [13] = system: Mycolicibacterium smegmatis; experiment: Antimicrobial activity against Mycobacterium smegmatis ATCC 607; assay type: functional
# Bacillus cereus = experiment: Antimicrobial activity against Bacillus cereus ATCC 10702; assay type: functional
# Staphylococcus aureus [14] = experiment: Antimicrobial activity against methicillin-resistant Staphylococcus aureus isolate 17; assay type: functional
# Shigella dysenteriae = experiment: Antimicrobial activity against Shigella dysenteriae JS1 1910; assay type: functional
# Providencia rettgeri [15] = experiment: Antimicrobial activity against Providencia rettgeri GN311; assay type: functional
# Staphylococcus aureus [16] = experiment: Antimicrobial activity against Staphylococcus aureus Smith; assay type: functional
# Bacillus subtilis [17] = experiment: Antimicrobial activity against Bacillus subtilis PCI 219; assay type: functional
# Escherichia coli [18] = experiment: Antimicrobial activity against Escherichia coli BE1126; assay type: functional
# [19] = system: Salmonella enterica subsp. enterica; experiment: Antimicrobial activity against Salmonella enteritidis 1891; assay type: functional, Salmonella enterica subsp. enterica serovar Enteritidis
# [20] = system: Salmonella enterica subsp. enterica; experiment: Antimicrobial activity against Salmonella typhi JS11746; assay type: functional, Salmonella enterica subsp. enterica serovar Typhi
# Pseudomonas aeruginosa [21] = experiment: Antimicrobial activity against Pseudomonas aeruginosa GN315; assay type: functional
# [22] = system: Mycolicibacterium smegmatis; experiment: Antimicrobial activity against rifamycin-resistant Mycobacterium smegmatis ATCC 607; assay type: functional
# Staphylococcus aureus [23] = experiment: Antimicrobial activity against Staphylococcus aureus MS9610; assay type: functional
# Bacillus anthracis = experiment: Antimicrobial activity against Bacillus anthracis; assay type: functional
# Escherichia coli [24] = experiment: Antimicrobial activity against Escherichia coli K-12; assay type: functional
# Proteus vulgaris = experiment: Antimicrobial activity against Proteus vulgaris OX19; assay type: functional
# Proteus mirabilis = experiment: Antimicrobial activity against Proteus mirabilis IFM OM-9; assay type: functional
# Micrococcus luteus [25] = experiment: Antimicrobial activity against Micrococcus luteus FDA16; assay type: functional
# Klebsiella pneumoniae = experiment: Antimicrobial activity against Klebsiella pneumoniae PCI602; assay type: functional
# Escherichia coli [26] = experiment: Antimicrobial activity against Escherichia coli K-12 MLI629; assay type: functional
# [27] = system: Salmonella enterica subsp. enterica; experiment: Antimicrobial activity against Salmonella typhi T-63; assay type: functional, Salmonella enterica subsp. enterica serovar Typhi
# Shigella flexneri = experiment: Antimicrobial activity against Shigella flexneri 4bJS11811; assay type: functional
# Micrococcus luteus [28] = experiment: Antimicrobial activity against Micrococcus luteus PCI 1001; assay type: functional
# Corynebacterium bovis = experiment: Antimicrobial activity against Corynebacterium bovis 1810; assay type: functional
# Bacillus subtilis [29] = experiment: Antimicrobial activity against Bacillus subtilis NRRL B-558; assay type: functional
# Staphylococcus aureus [30] = experiment: Antimicrobial activity against methicillin-resistant Staphylococcus aureus isolate 5; assay type: functional
# KB = experiment: Cytotoxicity against human KB cells; assay type: functional, cell-based
# LoVo = experiment: Cytotoxicity against human LoVo cells; assay type: functional, cell-based
# [31] = system: Mycolicibacterium smegmatis; experiment: Antimicrobial activity against paromomycin-resistant Mycobacterium smegmatis ATCC 607; assay type: functional
# [32] = system: Mycolicibacterium smegmatis; experiment: Antimicrobial activity against streptothricin-resistant Mycobacterium smegmatis ATCC 607; assay type: functional
# [33] = system: Mycolicibacterium smegmatis; experiment: Antimicrobial activity against capreomycin-resistant Mycobacterium smegmatis ATCC 607; assay type: functional
# [34] = system: Mycolicibacterium smegmatis; experiment: Antimicrobial activity against streptomycin-resistant Mycobacterium smegmatis ATCC 607; assay type: functional
structure (smiles),measurement,setting,value
COC1=C(C)C(=O)C2=C(C1=O)[C@@H](COC(N)=O)[C@@]1(O)[C@H]3N[C@H]3CN21 [9A-DEMETHYLMITOMYCIN A],ED50,CCRF S-180 [1],4.9 µg/mL
same,LD50,Mus musculus,7.5 µg/mL
CC(=O)NC1CCn2c1nc1c2CC(C)=C(N2CC2)C1=O (configuration not stated),IC50,L5178Y,4000 nM
CC1SCCN1P(=O)(N1CC1)N1CC1 (configuration not stated) [MARCOPHAN],mortality,[2],25%
COC1=C(C)C(=O)C2=C(C1=O)[C@H](COC(N)=O)[C@@]1(O)[C@@H]3[C@H](CN21)N3C (some centres not stated) [MITOMYCIN B],ED50,CCRF S-180 [1],2.5 µg/mL
same,LD50,Mus musculus,4.5 µg/mL
CC(=O)[C@H]1C(N2CC2)C[C@H]2[C@@H]3CC=C4C[C@@H](O)CC[C@]4(C)[C@H]3CC[C@]12C (some centres not stated),inhibition (INH),[3],61%
CC1(C)CC(C(=O)ONP(=O)(N2CC2)N2CC2)CC(C)(C)N1O,Activity,[4],90%
same,Activity,CCRF S-180 [5],93%
NCCCCNCCCN1CC1,IC50,L1210,150 nM
same,IC50,HL-60,110 nM
CC(=O)O[C@H]1C(=O)[C@@]2(C)C([C@H](OC(=O)c3ccccc3)[C@]3(O)C[C@H](OC(=O)[C@@H](O)[C@H](NC(=O)c4ccccc4)c4ccccc4)C(C)=C1C3(C)C)[C@]1(OC(=O)N3CC3)CO[C@@H]1C[C@@H]2O (some centres not stated),IC50,HCT-116,15.6 nM
CC(=O)O[C@H]1C(=O)[C@@]2(C)C([C@H](OC(=O)c3ccccc3)[C@]3(O)C[C@H](OC(=O)[C@@H](O)[C@H](CC(=O)OC(C)(C)C)c4ccco4)C(C)=C1C3(C)C)[C@]1(OC(=O)N3CC3)CO[C@@H]1C[C@@H]2O (some centres not stated),IC50,HCT-116,2 nM
COc1c(O)cc2c(OC)c3c(c(O)c2c1O)C(=O)CC1CC(O)(C2CN2C)CC(=O)C31O (configuration not stated) [AZICEMICIN A],MIC,Pseudomonas aeruginosa [6],> 50 µg/mL
same,MIC,Escherichia coli [7],50 µg/mL
same,MIC,Escherichia coli [8],100 µg/mL
same,MIC,Escherichia coli [9],100 µg/mL
same,MIC,Providencia rettgeri [10],> 100 µg/mL
same,MIC,Mycolicibacterium vaccae,50 µg/mL
same,MIC,Staphylococcus aureus [11],> 100 µg/mL
same,MIC,Micrococcus luteus [12],12.5 µg/mL
same,MIC,[13],50 µg/mL
same,MIC,Bacillus cereus,> 100 µg/mL
same,MIC,Staphylococcus aureus [14],> 100 µg/mL
same,MIC,Shigella dysenteriae,100 µg/mL
same,MIC,Providencia rettgeri [15],> 100 µg/mL
same,MIC,Staphylococcus aureus [16],> 100 µg/mL
same,MIC,Bacillus subtilis [17],> 100 µg/mL
same,MIC,Escherichia coli [18],100 µg/mL
same,MIC,[19],100 µg/mL
same,MIC,[20],100 µg/mL
same,MIC,Pseudomonas aeruginosa [21],> 100 µg/mL
same,MIC,[22],50 µg/mL
same,MIC,Staphylococcus aureus [23],> 100 µg/mL
same,MIC,Bacillus anthracis,100 µg/mL
same,MIC,Escherichia coli [24],> 100 µg/mL
same,MIC,Proteus vulgaris,> 100 µg/mL
same,MIC,Proteus mirabilis,> 100 µg/mL
same,MIC,Micrococcus luteus [25],50 µg/mL
same,MIC,Klebsiella pneumoniae,100 µg/mL
same,MIC,Escherichia coli [26],> 100 µg/mL
same,MIC,[27],100 µg/mL
same,MIC,Shigella flexneri,50 µg/mL
same,MIC,Micrococcus luteus [28],12.5 µg/mL
same,MIC,Corynebacterium bovis,25 µg/mL
same,MIC,Bacillus subtilis [29],> 100 µg/mL
same,MIC,Staphylococcus aureus [30],> 100 µg/mL
C=C1C2=C(C(=O)C(C)=C(N)C2=O)N2C[C@H]3[C@H](N3C)[C@]12O (some centres not stated) [MITOMYCIN Z],ED50,CCRF S-180 [1],82 µg/mL
same,LD50,Mus musculus,210 µg/mL
NCCCNCCCCN1CC1,IC50,L1210,310 nM
same,IC50,HL-60,300 nM
COC(=O)[C@@H]1N=C1/C=C/CCCCCCCCC/C=C(/Cl)Br,IC50,HCT-116,15200 nM
CC(=O)[C@H]1C(N2CC2)C[C@H]2[C@@H]3CCC4=CC(=O)CC[C@]4(C)[C@H]3CC[C@]12C (some centres not stated),inhibition (INH),[3],55%
COC(=O)[C@H]1N=C1/C=C/CCCCCCCCCC=C(Br)Br,IC50,HCT-116,19600 nM
C/C(=C\c1csc(C)n1)[C@@H]1C[C@H]2[C@@H](CCC[C@H](C)[C@H](O)[C@@H](C)C(=O)C(C)(C)[C@@H](O)CC(=O)O1)N2CCO (some centres not stated),IC50,KB,4.3 nM
C=C1C2=C(C(=O)C(C)=C(OC)C2=O)N2C[C@H]3[C@H](N3C)[C@]12OC (some centres not stated) [MITOMYCIN G],ED50,CCRF S-180 [1],100 µg/mL
same,LD50,Mus musculus,130 µg/mL
CC(=O)[C@]1(O)Cc2c(O)c3c(c(O)c2[C@@H](OC2C[C@H](N4CC4)[C@H](OS(C)(=O)=O)[C@H](C)O2)C1)C(=O)c1ccccc1C3=O (some centres not stated),IC50,LoVo,0.0027 µg/mL
Nc1nc(=O)c2c(CNC(=O)N3CC3)c[nH]c2[nH]1,IC50,L5178Y,9 µg/mL
COc1c(O)cc2c(OC)c3c(c(O)c2c1O)C(=O)CC1CC(O)(C2CN2)CC(=O)C31O (configuration not stated) [AZICEMICIN B],MIC,Pseudomonas aeruginosa [6],> 50 µg/mL
same,MIC,Escherichia coli [7],25 µg/mL
same,MIC,[31],6.25 µg/mL
same,MIC,Escherichia coli [8],100 µg/mL
same,MIC,Escherichia coli [9],100 µg/mL
same,MIC,Providencia rettgeri [10],100 µg/mL
same,MIC,Mycolicibacterium vaccae,6.25 µg/mL
same,MIC,Staphylococcus aureus [11],100 µg/mL
same,MIC,Micrococcus luteus [12],1.56 µg/mL
same,MIC,[13],12.5 µg/mL
same,MIC,Bacillus cereus,100 µg/mL
same,MIC,Staphylococcus aureus [14],100 µg/mL
same,MIC,Shigella dysenteriae,25 µg/mL
same,MIC,Providencia rettgeri [15],100 µg/mL
same,MIC,Staphylococcus aureus [16],100 µg/mL
same,MIC,Bacillus subtilis [17],100 µg/mL
same,MIC,Escherichia coli [18],100 µg/mL
same,MIC,[19],> 50 µg/mL
same,MIC,[20],100 µg/mL
same,MIC,Pseudomonas aeruginosa [21],100 µg/mL
same,MIC,[22],25 µg/mL
same,MIC,Staphylococcus aureus [23],100 µg/mL
same,MIC,Bacillus anthracis,100 µg/mL
same,MIC,Escherichia coli [24],100 µg/mL
same,MIC,Proteus vulgaris,100 µg/mL
same,MIC,[32],25 µg/mL
same,MIC,Proteus mirabilis,100 µg/mL
same,MIC,Micrococcus luteus [25],6.25 µg/mL
same,MIC,[33],12.5 µg/mL
same,MIC,Klebsiella pneumoniae,100 µg/mL
same,MIC,Escherichia coli [26],100 µg/mL
same,MIC,[27],100 µg/mL
same,MIC,[34],6.25 µg/mL
same,MIC,Shigella flexneri,100 µg/mL
same,MIC,Micrococcus luteus [28],1.56 µg/mL
same,MIC,Corynebacterium bovis,6.25 µg/mL
same,MIC,Bacillus subtilis [29],100 µg/mL
same,MIC,Staphylococcus aureus [30],100 µg/mL
